The text below walks through data of US12077534B2, “Aza-heterobicyclic inhibitors of MAT2A and methods of use for treating cancer” (Les Laboratoires Servier SAS, priority 2018, dated 2024).

The target in one assay is T1, MAT2A homodimer (Homo sapiens, UniProt P31153).
T1 construct: inferred from Ni sepharose purification and imidazole elution; made in house; host or cells: SF9 insect cells, recombinant baculovirus (Bac to Bac, pFASTBAC1)
Nature of the assay: MAT2A biochemical assay (phosphate release, PiColorLock Gold). The settings on record: recombinant MAT2A homodimer, 60 min pre-incubation, 25° C.; read-out: Enzyme Inhibition. As for the experimental part: Mat2A protein was expressed by recombinant baculovirus in SF9 infected cells using the Bac to Bac system cloned into the pFASTBAC1 vector (Invitrogen, Carlsbad, CA). Recombinant MAT2A was isolated from the cell lysate of 150 g of infected cells using HP Ni sepharose column chromatography. Recombinant MAT2A homodimer was eluted with 250 and 500 mM imidazole, and fractions containing MAT2A were identified by sodium dodecyl sulfate polyacrylamide gel electrophoresis and pooled.
For determination of the inhibitory potency of compounds against the MAT2A homodimer, protein was diluted to 4 μg/mL in assay buffer (50 mM Tris, pH 8.0, 50 mM KCl, 15 mM MgCl2, 0.3 mM EDTA, 0.005% [w/v] bovine serum albumin [BSA]). Test compound was prepared in 100% dimethyl sulfoxide (DMSO) at 50× the desired final concentration. A 1 μL volume of compound dilution was added to 40 μL of enzyme dilution and the mixture was allowed to equilibrate for 60 minutes at 25° C. The enzymatic assay was initiated by the addition of 10 μL of substrate mix (500 μM ATP, pH 7.0, 400 μM L-methionine in 1× assay buffer), and the mixture was incubated for a further 60 minutes at 25° C. The reaction was halted and the liberated phosphate released by the enzyme in stoichiometric amounts by the production of S-adenosyl methionine (SAM) was measured using the PiColorLock Gold kit (Innova Biosciences, UK). Absolute product amounts were determined by comparison to a standard curve of potassium phosphate buffer, pH 8.0.

Assay [1] has as its system MAT2A activity (SAM) in HCT116 cells with deleted MTAP gene. Put plainly: Cellular assay of target engagement (SAM) by LC-MS/MS. In kind it is cell-based. The following applies: Homo sapiens, HCT-116; HCT116 MTAP −/−, 72 hrs; read-out: Cell 72 h SAM Inhibition (MTAP −/−). As for the experimental part:
Measurement of MAT2A activity in cells was made by direct quantitation of the abundance of the product of its enzymatic activity, SAM. Cancer cells were treated with candidate MAT2A inhibitors for a suitable incubation period, and the cells were then lysed using a reagent which quenched any further enzyme activity. Soluble metabolites including SAM were collected and SAM itself was directly measured from the lysate using quantitative LC-MS/MS.
A typical assay was performed using an HCT116 human colon carcinoma cell line which was genetically engineered to delete the MTAP gene (commercially available from Horizon Discovery). This cell line was utilized because it was determined that loss of the MTAP gene predicts sensitivity to MAT2A inhibitors. Cells were plated in 96-well dishes at appropriate cell density. Following 24 hours, cells were then treated with the candidate MAT2A inhibitor. Prior to addition to cells, the compound was first serially diluted in 100% DMSO, typically as a 3-fold serial dilution starting at 500× top dose with 10 dose points including DMSO only control. Compound was then transferred to a working stock plate in cell culture media by adding 5 μL of compound in DMSO to 495 μL of cell culture media. This working stock was then added to cells via a further 5-fold dilution, by adding 25 μL of working stock to 100 μL of cells in culture media. Following compound addition, cells were incubated at 37° C./5% CO2 for 72 hrs.
To quantitate SAM levels following compound treatment, cells were gently washed once in ammonium carbonate buffer (75 mM at pH 7.4), placed on dry ice, and lysed with metabolite extraction buffer (80% cold methanol and 20% water (v/v) with acetic acid at 1M final concentration with 200 ng/mL deuterated d3-SAM as internal control). Following centrifugation at 4° C. at 3,200 rpm for 30 minutes, the supernatant was collected and stored at −80° C. until analysis by Liquid Chromatography with tandem Mass Spectrometry (LC-MS/MS). LC-MS/MS analysis was performed using an API6500 Mass Spectrometer (Sciex, Framingham, MA, USA) operating in positive ion spray mode and equipped with a Waters UPLC Acquity (Waters, Milford, MA, USA) BEH Amide column. Multiple Reaction Monitoring data was acquired for SAM and the d3-SAM standard, using a mass transition pair at m/z 399.2→250.1 and 402.2→250.1, respectively. In a typical LC-MS/MS analysis, the initial flow rate was 0.5 ml/min of 25% mobile phase A (acetonitrile and water at 5:95 (v/v) with 1% formic acid and 10 mM ammonium acetate) and 75% mobile phase B (acetonitrile and water at 95:5 (v/v) with 1% formic acid and 10 mM ammonium acetate), 0.2-0.5 minutes with 75%-35% mobile phase B, 25%-65% mobile phase A, at 0.5 min 65% mobile phase A and 35% mobile phase B, 1.0-1.1 minutes with 35%-75% mobile phase B, 65%-25% mobile phase A, at 1.1 min 25% mobile phase A and 75% mobile phase B with a total run time of 1.5 minutes.

The subject of another assay is HCT116 MTAP−/−. Nature of the assay: Inhibition of cellular proliferation (Cell Titer Glo), HCT116 MTAP-/-. In kind it is cell-based. The following applies: Homo sapiens, HCT-116, 96 h, 4 days, read-out: 4 Day Relative Growth Inhibition (MTAP −/−). As for the experimental part: (§1) Test compound impact on cancer cell growth was assessed by treating cancer cells with compound for 4 days and then measuring proliferation using an ATP-based cell proliferation readout (Cell Titer Glo, Promega Corporation).
(§2) In a typical assay an isogenic pair of HCT116 human colon carcinoma cell lines which vary only in MTAP deletion status (HCT116 MTAP+/+ and HCT116 MTAP−/−) were plated in 96-well dishes at appropriate cell density. Following 24 hours, cells were then treated with the candidate MAT2A inhibitor. Prior to addition to cells, the compound was first serially diluted in 100% DMSO, typically as a 3-fold serial dilution starting at 500× top dose with 10 dose points including DMSO only control. Compound was then transferred to a working stock plate in cell culture media by adding 5 μL of compound in DMSO to 495 μL of cell culture media. This working stock was then added to cells via a further 5-fold dilution, by adding 25 μL of working stock to 100 μL of cells in culture media. Following compound addition, cells were incubated at 37° C./5% CO2 for 4 days.
(§3) To measure inhibition of cellular proliferation, cells were allowed to equilibrate to room temperature for 30 minutes, and were then treated with 125 μL of Cell Titer Glo reagent. The plate was then covered with aluminum foil and shaken for 15 minutes to ensure complete mixing and full cell lysis. Luminescent signal was then measured using a plate-based luminometer Veritas version 1.9.2 using ATP standard curve to confirm assay reproducibility from run to run. This luminescence measure was converted to a proliferation index by subtracting from each data point the ATP luminescence signal measured from a bank (no cells) well and dividing by the ATP luminescence signal measured in 0.2% DMSO control well adjusted for signal in blank well. Compound activity was then represented as a percentage change in proliferation relative to a within-plate DMSO control against log 10 of compound concentration in molar (M) units.

The subject of the next assay is HCT116 MTAP+/+. Nature of the assay: Inhibition of cellular proliferation (Cell Titer Glo), HCT116 MTAP+/+. The class given is cell-based. The settings on record: Homo sapiens, HCT-116, 96 h, 4 days, read-out: 4 Day Relative Growth Inhibition (MTAP +/+). As for the experimental part: as §1, §2, §3

Each structure is given as a SMILES string.

T1 sequence (P31153 whole entry): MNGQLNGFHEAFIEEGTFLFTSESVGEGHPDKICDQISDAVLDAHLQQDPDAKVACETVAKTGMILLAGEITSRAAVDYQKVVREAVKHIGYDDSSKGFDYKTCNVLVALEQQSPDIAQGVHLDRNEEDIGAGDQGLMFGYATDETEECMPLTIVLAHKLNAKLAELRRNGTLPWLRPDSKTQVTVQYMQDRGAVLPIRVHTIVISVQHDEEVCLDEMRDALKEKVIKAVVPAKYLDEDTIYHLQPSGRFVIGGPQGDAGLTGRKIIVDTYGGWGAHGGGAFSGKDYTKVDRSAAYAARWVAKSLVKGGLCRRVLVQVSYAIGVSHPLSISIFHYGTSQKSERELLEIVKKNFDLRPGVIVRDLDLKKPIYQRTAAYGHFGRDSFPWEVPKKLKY

On to `COc1ccc(-c2c(=O)n(-c3ccc4nn(C)cc4c3)nc3ccc(OCC(F)F)nc23)cc1` [Example 106], for which the IC50 at MAT2A homodimer is less than 100 nM; in assay [1] it was less than 100 nM; in the assay with HCT116 MTAP−/−, less than 100 nM; in the assay on HCT116 MTAP+/+ it was 100 to 1000 nM.

`Cn1cc2cc(-n3nc4ccc(OCC(F)(F)F)nc4c(-c4ccc(OC(F)F)cc4)c3=O)ccc2n1` [Example 123]: the IC50 at MAT2A homodimer is less than 100 nM; in assay [1], less than 100 nM; with HCT116 MTAP−/−, less than 100 nM; with HCT116 MTAP+/+, 100 to 1000 nM.

For the compound `O=c1c(-c2ccc(OC(F)F)cc2)c2nc(OCC(F)F)ccc2nn1-c1ccc2c(c1)OCCO2` [Example 177], the IC50 at MAT2A homodimer was less than 100 nM; in assay [1], less than 100 nM; in the assay with HCT116 MTAP−/− it was less than 100 nM; with HCT116 MTAP+/+, 100 to 1000 nM.

For `Cn1cc2cc(-n3nc4ccc(OCC5CC5)nc4c(-c4ccc(Cl)cc4)c3=O)ccc2n1` [Example 101, 4-(4-chlorophenyl)-6-(cyclopropylmethoxy)-2-(2-methyl-2H-indazol-5-yl)pyrido[3,2-c]pyridazin-3(2H)-one], the IC50 at MAT2A homodimer is less than 100 nM; in assay [1], less than 100 nM; with HCT116 MTAP−/−, 100 to 1000 nM; in the assay on HCT116 MTAP+/+, no less than 1000 nM.

As for `Cn1cc2cc(-n3nc4ccc(OCC(F)F)nc4c(C#Cc4cc[nH]n4)c3=O)ccc2n1` [Example 215, 4-((1H-pyrazol-3-yl)ethynyl)-6-(2,2-difluoroethoxy)-2-(2-methyl-2H-indazol-5-yl)pyrido[3,2-c]pyridazin-3(2H)-one], the IC50 on MAT2A homodimer is less than 100 nM; in assay [1], greater than 1000 nM; in the assay on HCT116 MTAP−/−, 100 to 1000 nM; with HCT116 MTAP+/+, no less than 1000 nM.

As for `Cn1cc2cc(-n3nc4ccc(OCC5CC5)nc4c(-c4ccc(OC(F)F)cc4)c3=O)ccc2n1` [Example 137], the IC50 at MAT2A homodimer is less than 100 nM; in assay [1] it was less than 100 nM; in the assay with HCT116 MTAP−/−, less than 100 nM; in the assay with HCT116 MTAP+/+ it was no less than 1000 nM.

For `O=c1c(-c2ccc(C3CC3)nc2)c2nc(OCC(F)F)ccc2nn1-c1ccc2ncsc2c1` [Example 147], the IC50 is less than 100 nM on MAT2A homodimer, 100 to 1000 nM in assay [1], 100 to 1000 nM with HCT116 MTAP−/− and no less than 1000 nM with HCT116 MTAP+/+.

On to `Cn1cc2cc(-n3nc4ccc(OCC(F)F)nc4c(-c4ccn[nH]4)c3=O)ccc2n1` [Example 153], for which the IC50 at MAT2A homodimer is 100 to 1000 nM; in assay [1], greater than 1000 nM; in the assay on HCT116 MTAP−/− it was no less than 1000 nM; in the assay on HCT116 MTAP+/+, no less than 1000 nM.

With `Cn1cc2cc(-n3nc4ccc(NCC(F)(F)F)nc4c(-c4ccc(OC(F)F)cc4)c3=O)ccc2n1` [Example 160], the IC50 is less than 100 nM at MAT2A homodimer, less than 100 nM in assay [1], less than 100 nM in the assay with HCT116 MTAP−/− and no less than 1000 nM with HCT116 MTAP+/+.

As for `CCNc1ccc2nn(-c3ccc4nc(C)n(C)c4c3)c(=O)c(-c3ccc(C(F)F)nc3)c2n1` [Example 327], the IC50 was less than 100 nM on MAT2A homodimer, less than 100 nM in assay [1], less than 100 nM with HCT116 MTAP−/− and no less than 1000 nM in the assay with HCT116 MTAP+/+.

Regarding `O=c1c(-c2ccc(Cl)cc2)c2nc(OCC(F)F)ccc2nn1-c1ccc2ncsc2c1` [Example 143], the IC50 at MAT2A homodimer is less than 100 nM; in assay [1], less than 100 nM; in the assay with HCT116 MTAP−/−, less than 100 nM; in the assay with HCT116 MTAP+/+ it was no less than 1000 nM.

As to `CCOc1ccc2nn(-c3ccc(OC)cc3)c(=O)c(-c3ccc(Cl)cc3)c2n1` [Example 117], the IC50 is less than 100 nM at MAT2A homodimer, less than 100 nM in assay [1], less than 100 nM in the assay on HCT116 MTAP−/− and no less than 1000 nM with HCT116 MTAP+/+.

As to `Cc1ccc(-c2c(=O)n(-c3ccc4nn(C)cc4c3)nc3ccc(NCC(F)(F)F)nc23)cn1` [Example 301, 2-(2-methyl-2H-indazol-5-yl)-4-(6-methylpyridin-3-yl)-6-((2,2,2-trifluoroethyl)amino)pyrido[3,2-c]pyridazin-3(2H)-one], the IC50 on MAT2A homodimer was less than 100 nM; in assay [1] it was less than 100 nM; with HCT116 MTAP−/−, less than 100 nM; in the assay on HCT116 MTAP+/+, no less than 1000 nM.

For `CCNc1ccc2nn(-c3ccc4nn(C)cc4c3)c(=O)c(-c3ccc(OC(F)F)cc3)c2n1` [Example 159], the IC50 on MAT2A homodimer is less than 100 nM; in assay [1], less than 100 nM; in the assay on HCT116 MTAP−/−, less than 100 nM; with HCT116 MTAP+/+, no less than 1000 nM.

In the case of `Cc1c2cc(-n3nc4ccc(OCC(F)F)nc4c(-c4ccc(Cl)cc4)c3=O)ccc2nn1C` [Example 173], the IC50 at MAT2A homodimer was less than 100 nM; in assay [1], less than 100 nM; with HCT116 MTAP−/− it was less than 100 nM; with HCT116 MTAP+/+ it was 100 to 1000 nM.

For the compound `Cn1cc2cc(-n3nc4ccc(OCC(F)F)nc4c(-c4ccccc4)c3=O)ccc2n1` [Example 133], the IC50 at MAT2A homodimer is less than 100 nM; in assay [1], less than 100 nM; in the assay on HCT116 MTAP−/−, 100 to 1000 nM; in the assay with HCT116 MTAP+/+, no less than 1000 nM.

On to `Cn1nc2ccc(-n3nc4ccc(OCC(F)F)nc4c(-c4ccc(OC(F)F)cc4)c3=O)cc2n1` [Example 182], for which the IC50 on MAT2A homodimer was less than 100 nM; in assay [1], less than 100 nM; in the assay on HCT116 MTAP−/−, less than 100 nM; with HCT116 MTAP+/+, 100 to 1000 nM.

`CC(C)Oc1ccc2nn(-c3ccc4nn(C)cc4c3)c(=O)c(-c3ccc(OC(F)F)cc3)c2n1` [Example 138]: the IC50 was less than 100 nM at MAT2A homodimer, less than 100 nM in assay [1], less than 100 nM in the assay with HCT116 MTAP−/− and no less than 1000 nM in the assay with HCT116 MTAP+/+.
